Experimental findings from a melting point compilation (Tetko et al.; mined from patent text by program, amines drawn as free bases though some values may be those of a salt) are described below.

On to `CCOC(=O)C1(O)c2ccccc2S(=O)(=O)N1C(C)(C)C` (centres undefined), for which the melting point (usually the temperature of the solid-liquid transition) was in the range of 93 to 95 °C.

In the case of `CCOC(=O)c1c(C(F)(F)F)oc2ccc(C(F)(F)F)cc2c1=O`, the melting point lay in the range of 116 to 120 °C.

`CCCCc1ncc(CCN(C)C(Cc2ccccc2)C(=O)O)n1Cc1ccccc1Cl` (centres undefined) came in with a melting point of 59 to 61 °C.

`CN1c2ccncc2NCc2cccn21` gave a melting point of 135 to 140 °C.

Take `N#Cc1c(N2CCCCC2)cc(-c2ccc(F)cc2)c2c1-c1ccccc1C2`: the melting point fell in the range of 176 to 178 °C.

Turning to `CCNC(=O)NSC(=S)N(C)C`, the melting point was 173 to 175 °C.

Turning to `CC=C1CC2C3CCc4cc(OC)ccc4C3CCC2(C)C1=O` (centres undefined), the melting point lay within 139 to 140 °C.

The compound `COc1cc(C(C)=O)ccc1OCCCCN1CCC(c2n[nH]c3ccccc23)CC1` registered a melting point of 133 to 135 °C.

`CCCCCCOc1cccc(C[C@H](NC(=O)c2coc(NS(C)(=O)=O)n2)[C@H](O)CNCc2cccc(CC)c2)c1` had a melting point of 85 to 90 °C.

On to `CC(=O)Nc1nc(NCCSC(C)=O)n[nH]1`, for which the melting point lay within 127 to 130 °C.

In the case of `Cn1cncc1C(O)(c1ccc(Cl)cc1)c1ccc2c(c1)c(-c1cccc(Cl)c1)cc1cnnn12` (centres undefined), the melting point is 222 °C.

`O=C(O)C(c1ccccc1)n1cnc2[nH]ncc2c1=S` (centres undefined) displayed a melting point of 95 to 98 °C.

For `CCCCN(CCCC)C(=O)CC1(c2ccc(OCOC)cc2)NCC(c2ccc3c(c2)OCO3)C1C(=O)O` (centres undefined), the melting point was 48 to 49 °C.

`Cc1nn(-c2cc(C(F)(F)F)ccc2Cl)cc1C(=O)N(CC(=O)O)c1ccc(OCC(C)(C)C)c(C#N)c1`: the melting point fell in the range of 189 to 190 °C.

As for `Cc1ccc(-c2nnc(N3CCCCCC3)nc2-c2ccc(C)cc2)cc1`, the melting point is 162 to 164 °C.

`CCCCc1oc2ccccc2c1C(=O)NCc1ccc2c(-c3ccc(Cl)cc3)c(OC(Cc3ccccc3)C(=O)OC)ccc2c1` (centres undefined) had a melting point of 59 to 62 °C.

`Cc1c(C)c(C)c(S(=O)(=O)NC(Cc2nc3ccc(C=CCNC4=NCCN4)cc3c(=O)[nH]2)C(=O)O)c(C)c1C` (centres undefined) yielded a melting point of 131 to 135 °C.

As to `O=C1Nc2ccncc2N2CCNCC12` (centres undefined), the melting point lay in the range of 303 to 306 °C.

`COc1cc2c(C)c(C#N)cnc2cc1F` had a melting point of 177 to 179 °C.

With `Cc1c(-c2ncc(Cl)cc2F)nn(C)c1C(=O)O`, the melting point fell in the range of 194 to 196 °C.

As for `Cc1nc(OCC(F)(F)F)c([N+](=O)[O-])c(N2CCC(c3ccccc3)CC2)n1`, the melting point is 114 to 117 °C.

As to `CCOC(=O)C(Cc1ccc(OCCn2c(=O)sc3cc(C(=NO)C4CC4)ccc32)cc1)OCC(F)(F)F` (centres undefined), the melting point lay in the range of 105 to 107 °C.

Compound `CC(C#CCOc1cccc(Oc2ccccn2)c1)N(O)C(N)=O` (centres undefined) gave a melting point of 117 to 119 °C.

In turn, `CCCCNC(=O)Nc1ccc(N(CC)CC)cc1C(=O)NCC1CCN(C(c2ccccc2)c2ccccc2)CC1` yielded a melting point of 158 to 160 °C.

`CC1=CC(C)=Nc2c(ccc3nc(O)c(O)nc23)N1`: the melting point was above 300 °C.

In the case of `CCCc1c(C(=O)C(C)C)c2ccc(C(N)=O)cc2n1Cc1ccccc1NC(C)=O`, the melting point was in the range of 235 to 236 °C.

`CC(C)C(c1ccc(NC(=O)CC(=O)c2ccccc2)c([N+](=O)[O-])c1)n1ccnc1` (centres undefined) returned a melting point of 106 °C.

Compound `N=C(N)c1ccccc1-c1ccccc1` showed a melting point of 148 to 150 °C.

Regarding `CC(C)N1CC[C@@H](Oc2ccc(-n3ccc(OCc4ccc(Cl)cn4)cc3=O)cc2)C1`, the melting point lay in the range of 154 to 155 °C.

`COc1cccc(CN2Cc3cc(OC)c(OCc4ccccc4)cc3C(OC)C2)c1` (centres undefined): the melting point was in the range of 96 to 97 °C.

Compound `COc1cc(Nc2nccc(-c3ccc4c(c3)CCCC4)n2)cc(OC)c1OC` returned a melting point of 150 to 151 °C.

In turn, `O=C(O)C1CCc2ccccc2N1C(=O)CCS` (centres undefined) registered a melting point of 130 to 132 °C.

`CSC(CC(=O)O)c1ccc(C(F)(F)F)cc1` (centres undefined): the melting point was in the range of 106 to 108 °C.

On to `CCOc1nn(C(=O)NS(=O)(=O)c2c(C)cccc2OC(C)C)c(=O)n1C`, for which the melting point was 155 °C.

On to `COc1ccc(C(=O)Nc2ccccc2)cc1NC(=S)Nc1cccc(Cl)c1`, for which the melting point was 165 to 168 °C.

`O=C(Nc1ccncc1)Nc1c(Cl)cccc1Cl` displayed a melting point of 217 to 219 °C.

Turning to `COc1ccc(N2CCN(CCOCc3ccccc3)C2=O)cc1`, the melting point was 54 to 55 °C.

`Nc1nnc(-c2ccc3occ(-c4ccc(OC(F)(F)F)cc4)c3c2)o1` yielded a melting point of 223 to 224 °C.

On to `FC(F)(F)C(Cc1ccccc1)(C(F)(F)F)C(F)(F)F`, for which the melting point was 32 to 33 °C.

Turning to `CN1c2ccc(C(C)(C)C)cc2[C@H]2Cc3ccccc3[C@H]21` (relative stereo), the melting point stood at 74 °C.

`CCC(CC)Oc1cc(C)nc2c1NC(=O)CN2c1c(C)cc(C)cc1C` registered a melting point of 179 to 181 °C.

`O=C(O)/C(=C\c1ccccc1)CC(=O)N1C[C@H]2CCCC[C@H]2C1` showed a melting point of 126 to 128 °C.

`O=c1[nH]c2sccc2c(=O)n1CCN1CCN(c2ccccc2)CC1`: the melting point lay within 228 to 230 °C.

`Cc1ccc(S(=O)(=O)Nc2ccc(C#N)cc2[N+](=O)[O-])cc1` had a melting point of 150 to 152 °C.

Compound `COc1ccc(NC(=S)NCC(OC)OC)cc1` showed a melting point of 215 to 217 °C.

In turn, `COc1cc(C(C)C)ccc1C1(Cl)C(=O)c2cccc([N+](=O)[O-])c2C1=O` (centres undefined) displayed a melting point of 81 to 84 °C.

`N#CCCN1CCN(C(c2ccccc2)c2ccccn2)CC1` (centres undefined) gave a melting point of 114 to 116 °C.

The compound `CCOC(=O)C1=C(C)NC(COCCN2C(=O)c3ccccc3C2=O)=C(C(=O)OCC)C1c1ccccc1Cl` (centres undefined) displayed a melting point of 142 to 144 °C.

Compound `COc1cccc(C(=O)c2cccc(F)c2)c1` yielded a melting point of 56 to 67 °C.

The compound `Cc1cccc(C(=O)c2ccc(OCC(=O)O)c(Cl)c2Cl)c1` gave a melting point of 173 to 175 °C.

For `CN1CCC(=C2c3ccccc3COc3cc(Cl)ccc32)CC1`, the melting point lay in the range of 113 to 116 °C.

As for `N#CC1(NCC2CCCCC2)CCN(Cc2ccccc2)CC1`, the melting point lay within 128 to 130 °C.

Turning to `COc1nc2ccc(Br)cc2c2c1Cc1ccccc1-2`, the melting point lay in the range of 150 to 152 °C.

`O=C(CSc1ccc(C2=NCC(c3cc(Cl)cc(Cl)c3)(C(F)(F)F)C2)cc1Cl)NCC(F)(F)F` (centres undefined) had a melting point of 189 °C.

For `CN(C)c1cccc2c(S(=O)(=O)Nc3cnc(Br)c(Cl)n3)cccc12`, the melting point lay within 180 to 182 °C.

The compound `CCc1ccc2c(c1)C(=O)c1ccc(C(=O)O)cc1S2(=O)=O` displayed a melting point of 300 to 303 °C.

In the case of `CC1Cc2cccc3c4oc(=O)c(Sc5cccc(F)c5)c(O)c4c(=O)n1c23` (centres undefined), the melting point was 199 to 200 °C.

`N#CCNc1nc(N2CCc3ccccc3CC2)c(C#N)c(=O)[nH]1` showed a melting point above 200 °C.

`COc1ccc(S(=O)(=O)C(CC(=O)NO)Cc2ccc(OCc3ccccc3)cc2)cc1` (centres undefined) showed a melting point of 128 to 130 °C.

For `COC(=O)c1cc(Cl)c(OC)c(Cl)c1N`, the melting point was in the range of 72 to 73 °C.

As to `CCC(=O)NCc1ccc2ccn(C3CCN(CCc4ccccc4F)CC3)c2c1`, the melting point was 118 to 119 °C.

For the compound `O=C(O)c1cc2ccnc(Cl)c2[nH]1`, the melting point was in the range of 210 to 214 °C.

With `O=C(CCCCCN1CCN(c2ccc3c(c2)CCCC3)CC1)N1Cc2ccccc2C1`, the melting point was 123 °C.

`OCc1cc2ccc3ccccc3c2o1` displayed a melting point of 106 to 107 °C.

The compound `NS(=O)(=O)c1ccc(N2CCN(CC3OCCc4ccccc43)CC2)cc1` (racemic) had a melting point of 218 °C.

Regarding `OC1(c2ccc(Cl)cc2)CCCNC12CCCCC2` (centres undefined), the melting point was 158 to 164 °C.

`CN(C(=O)OC(C)(C)C)c1cc(Oc2ccc(-c3ccc(O)cc3)cc2)ccc1N` gave a melting point of 89 to 91 °C.

`Cn1nc(-c2ccc(C(=O)O)cc2)nc1-c1ccccc1` showed a melting point of 243 to 244 °C.

Consider `N#CC(C(=O)c1ccc(NS(=O)(=O)C(F)(F)F)cc1)=C1CCCCN1`, for which the melting point came out at 197 °C.

Compound `COCC(=O)N(c1c(C)cccc1C)C(CCO)C(=O)O` (centres undefined) yielded a melting point of 150 to 152 °C.

`N=C(Nc1cccc(NC(=O)/C=C/c2ccccc2C(F)(F)F)c1)c1ccccc1`: the melting point lay in the range of 82 to 84 °C.

`CCC1(CCOCCNC(=O)NC2CCCCC2)Nc2cnc(C)c(C)c2N1` (centres undefined) showed a melting point of 187 to 189 °C.

For `COCC1CN(c2ccc(C3CCC(=O)CC3)cc2)C(=O)O1` (racemic), the melting point is 114 to 116 °C.

The compound `CC(C)(C)CCCOC1CCC2C3CC=C4CC(O[Si](C)(C)C(C)(C)C)CCC4(C)C3CCC12C` (centres undefined) showed a melting point of 138 to 139 °C.

`Clc1ccc2c(c1)C(c1ccccc1)=NCc1nnc(-c3ccccc3)n1-2` returned a melting point of 194 °C.

Take `CN(C)CCc1ccc(OCCCN2C(=O)c3ccccc3C2=O)cc1`: the melting point was 81 to 82 °C.

Take `COc1ccccc1N1CCN(CCC2CN(C)C(=O)O2)CC1` (centres undefined): the melting point lay in the range of 107 to 108 °C.

`CS(=O)(=O)c1nc(Cl)cc(OCc2ccccc2)n1` came in with a melting point of 74 to 77 °C.

Consider `CC(=O)N1CC2(CCN(C(=O)Nc3nnc(-c4ccccc4)s3)CC2)c2ccccc21`, for which the melting point is 260 °C.

In turn, `Cc1ccc(C23CC(C2)C(=O)N(C)C3=O)cc1` displayed a melting point of 138 to 140 °C.

With `Cc1ncc(C#N)c(Nc2ccc3[nH]ccc3c2C)c1-c1ccc(OCCCl)cc1`, the melting point lay within 200 to 201 °C.

On to `OC1CCN(c2nc(-c3ccccc3)cc(-c3ccc4c(c3)OCO4)n2)CC1`, for which the melting point lay within 120 to 122 °C.

Take `COc1cc2c(cc1OC)C(C=NO)c1ccccc1CC2` (centres undefined): the melting point was 176 to 177 °C.

Consider `CCCNC(=O)C(C)=Cc1ccc2c(c1)c(Cc1ccc(C(=O)O)cc1OC)cn2CCC(=O)N(C)C`, for which the melting point lay within 90 to 97 °C.

The compound `OCc1c(F)cc(O)cc1Cl` had a melting point of 125 to 127 °C.

Compound `COc1c(Cl)ccc(Cl)c1C(=O)NO` showed a melting point of 150 °C.

Consider `CCOC(=O)c1cc2cc(-c3ccc(Cl)cc3)ccc2o1`, for which the melting point fell in the range of 108 to 110 °C.

Compound `C#CCOC(=O)c1ncn2c1CN(C)C(=O)c1c(Cl)cccc1-2` gave a melting point of 198 to 200 °C.

On to `O=C(Cl)/C=C/c1cccc(Br)c1`, for which the melting point lay within 85 to 86 °C.
